Test results published in patent US20230303540A1 (Merck Sharp & Dohme LLC, priority 2020, published 2023).

Target: GST-tagged truncated human mutant G2019S LRRK2 (Homo sapiens, UniProt Q5S007, G2019S)
Assay: LRRK2 G2019S Km ATP LanthaScreen assay
Format: biochemical
Settings: 134 μM ATP (Km ATP), LRRKtide substrate, mean IC50 values; read-out: LRRK2 pIC50 (converted)
Summary of the method: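 LanthaScreen TR-FRET read with fluorescein-LRRKtide and 134 μM ATP (Km) in Tris pH 8.5/10 mM MgCl2 buffer. The enzyme was preincubated 15 min with compound at room temperature, and the reaction ran 90 min at ambient temperature. Stopped with EDTA plus Tb anti-phospho-LRRKtide antibody; the 520/495 nm ratio gave a 4-parameter logistic IC50, mean of several runs.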

Row | SMILES | IC50
1 | CCC1(N2CCN(c3cc4nc(Nc5cnn(C6CC6)c5Cl)ncc4cc3Cl)CC2)COC1 [Ex-4.30, 6-chloro-N-(5-chloro-1-cyclopropyl-1H-pyrazol-4-yl)-7-[4-(3-ethyloxetan-3-yl)piperazin-1-yl]quinazolin-2-amine] | 15.7 nM
2 | Cc1cc(Nc2ncc3cc(Cl)c(N4CCC(C)(O)CC4)cc3n2)sn1 [Ex-6.8, 1-{6-chloro-2-[(3-methyl-1,2-thiazol-5-yl)amino]quinazolin-7-yl}-4-methylpiperidin-4-ol] | 16.3 nM
3 | C[C@H]1COC(=O)N1c1ccc2cnc(Nc3cc(C(C)(C)C)ns3)nc2c1 [Ex-8.10, (4S)-3-{2-[(3-tert-butyl-1,2-thiazol-5-yl)amino]quinazolin-7-yl}-4-methyl-1,3-oxazolidin-2-one] | 0.625 nM
4 | Cc1nsc(Nc2ncc3ccc(N4C(=O)C5CCC4C5)cc3n2)c1C (stereo not shown) [Ex-8.15, 2-{2-[(3,4-dimethyl-1,2-thiazol-5-yl)amino]quinazolin-7-yl}-2-azabicyclo[2.2.1]heptan-3-one] | 2.59 nM
5 | CCc1cc2cnc(Nc3cnn(C4CC4(F)F)c3Cl)nc2cc1N1CCN(C2(C)COCC2O)CC1 (single isomer, unassigned) [Ex-8.3, (3S,4S) or (3R,4R) 4-(4-(2-((5-chloro-1-(2,2-(R) or (S)difluorocyclopropyl)-1H-pyrazol-4-yl)amino)-6-ethylquinazolin-7-yl)piperazin-1-yl)-4-methyltetrahydrofuran-3-ol] | 0.745 nM
6 | Cc1cc2cnc(Nc3cnn(C45CC(F)(C4)C5)c3Cl)nc2cc1N1CCNCC1 [Ex-5.15, N-(5-chloro-1-(3-fluorobicyclo[1.1.1]pentan-1-yl)-1H-pyrazol-4-yl)-6-methyl-7-(piperazin-1-yl)quinazolin-2-amine] | 25.1 nM
7 | CC(C)(O)Cn1cc(Nc2ncc3cc(Cl)c(N4CCN(C5(C)COC5)CC4)cc3n2)cn1 [Ex-4.59, 1-[4-({6-chloro-7-[4-(3-methyloxetan-3-yl)piperazin-1-yl]quinazolin-2-yl}amino)-1H-pyrazol-1-yl]-2-methylpropan-2-ol] | 5.26 nM
8 | Cc1nscc1Nc1ncc2cc(Cl)c(N3CCN(C4(C)COC4)CC3)cc2n1 [Ex-4.67, 6-chloro-7-[4-(3-methyloxetan-3-yl)piperazin-1-yl]-N-(3-methyl-1,2-thiazol-4-yl)quinazolin-2-amine] | 23.8 nM
9 | CCn1ncc(Nc2ncc3cc(Cl)c(N4CCN(C5(C)COC5)CC4)cc3n2)c1C [Ex-4.13, 6-chloro-N-(1-ethyl-5-methyl-1H-pyrazol-4-yl)-7-[4-(3-methyloxetan-3-yl)piperazin-1-yl]quinazolin-2-amine] | 6.83 nM
10 | CCNc1cc2nc(Nc3cnn(C4CCN(C5(C)COC5)CC4)c3Cl)ncc2cc1Cl [Ex-3.45, 6-chloro-N~2~-{5-chloro-1-[1-(3-methyloxetan-3-yl)piperidin-4-yl]-1H-pyrazol-4-yl}-N~7~- ethylquinazoline-2,7-diamine] | 23.5 nM
